The results in this text go back to patent publication US7569526B2, “Anti-oxidants in soluble oil base for metal working fluids” (Crompton Corporation, priority 2003, dated 2009).

“And” between values parts separate entries of the source, which are not always exact repeats. Equal entries are not always repeated.

Series [1] can be described thus: Modified ASTM D3946 bottle test, sediment and pH (Examples 25-34). The format is physicochemical. Conditions: 25° C.; filtered at end of test. The procedure:
(§1) A modified ASTM D3946 method was run according to the following procedure:
(§2) 1. A 1-quart straight side jar was filled with 500 mL of emulsion. (Note: the straight sides of the jar allow culture plates to be immersed in the emulsion in situ. No steel chips were added.)
(§3) 2. While immersed in a 25° C. water bath, the jars were sparged with air using a disposable pipette at a flow rate of approximately 500 mL/min. (Note: this may need to be adjusted depending on the air supply and the amount of foaming observed).
(§4) 3. The pH was measured using standard pH paper or pH meter and bacteria/fungus counts were measured at one and two week intervals using culture plates (SaniCheck BF culture plates from Biosan Laboratories, Inc. were use in this study, but there are many suppliers available). Although the manufacturers protocol called for incubation between 24 and 36 hours, the bacteria counts were measured after 24, 30, and 48-hour incubations at 28° C. The bacterial onset was measured as the number of weeks necessary to observe at least a 10^3 bacteria count/mL on the culture plate (threshold value of this type of plate). Optionally, the average bacterial count can be calculated over the length of the test period.
4. At the end of the test, the solutions were filtered through medium filter paper (Whatman #2) and the amount of sediment recovered was weighed.
(§5) 5. Unless noted above, the other test details are identical to ASTM D3946.
In this case, after 22 weeks the pH broke and dropped from 9.0 to 7.0. In all other samples, the pH was measured between 8.5 and 9.0, without significant change over the test period.

Series [2] in a line: RBOT, standard ASTM D2272 (150 C.), bomb life. The format is physicochemical. An excerpt: (§6) The antioxidants used in this study were received from internal and external commercial sources without alteration. The sample of butylated DPA was from a preparation of Naugalube 640 in which the sample was enriched in butylated DPA.
The ASTM D2272 method was run according to the standard procedure using a 10/90 (oil/water) emulsion as a test sample.

The nature of series [3]: Modified ASTM D2272 (150 C.), constant time. The format is physicochemical. Conditions: after oxidation. The protocol:
1. Charge the vessel with 50 grams of the emulsion sample provided.
3. Unless noted above, the other test details are identical to ASTM D2272.
With the success of the 95° C. modified ASTM, thermal breakdown for the metalworking fluids at even higher temperature was tested. The test chosen was a modified ASTM D2272 (RBOT) which is run at 150° C. in a sealed bomb, which should provide sufficient stress to provide significant oxidative breakdown of the metalworking fluid. The test was modified so that after the inhibited sample had reduced pressure by 175 psi, all of the oxidations were stopped so that the time of the oxidation would be a constant (typically the test is run to a constant pressure drop value and the time is allowed to vary). […] Additionally, the pH of all samples dropped from the initial 9.0 to 3.0, with the exception of the sample of Naugalube 640, which dropped to 7.0.

Series [4] deals with bacteria. Briefly: Modified ASTM D3946 bottle test, bacteria count and onset (Examples 25-34). The format is cell-based. The note with it: 30 hours of incubation. The protocol: as §1, §2, §3, §4, §5
The biological activity was evaluated using a Sanicheck BF Conversion Chart. […]

Series [5] can be described thus: TOST, standard ASTM D943 (95° C.), acid number. The note with it: 0.5% Triadine-3 in Hyprene H100; two separate runs; baseline. The format is physicochemical.
Excerpt: as §6
Combining the results of Examples 11-24 with those of Examples 1-10, the synergies involved in the oxidation testing used can be seen. […] Hyprene H100 is a 100 SUS naphthenic oil. Although there is a large variation in the baseline, the general antioxidant chemistry trends (phenolic vs. aminic) were consistent.

The nature of series [6]: Modified ASTM D943 oxidation (95 C.), constant time. The format is physicochemical. The note with it: aging time 312 hrs. The procedure: 1. Fill the oxidation test tube with 300 ml of the emulsion sample provided.
2. When the first sample containing no antioxidant or biocide reaches a TAN (total acid number) of 2.0 mg/g KOH, stop all of the oxidations at that same time and measure the TAN. During the course of the testing it may be necessary to add a small amount of defoamer (1 drop of Foam Ban MS-575 from Ultra Additives) to prevent excessive foaming and loss of sample out of the top of the test apparatus. 3. Unless noted above the other test details are identical to ASTM D943
Accordingly, additional thermal stress was applied to accentuate differences in antioxidant performance. The test chosen to do this was a modified ASTM D943 run at 95° C., which it was expected would provide some oxidative breakdown of the metalworking fluid. The test was modified so that after the uninhibited sample had reached a TAN value of 2 mg KOH/g all of the oxidations were stopped so that the time of the oxidation would be a constant (typically the test is run to a constant TAN value and the time is allowed to vary).

Take `CC(C)(C)c1cc(CCC(=O)OCCSCCOC(=O)CCc2cc(C(C)(C)C)c(O)c(C(C)(C)C)c2)cc(C(C)(C)C)c1O` [AX 15, Thiodiethylene-bis(3,5-di-t-butyl-4-hydroxyhydrocinnamate)]: the Sediment entry in series [1] was “reduced the sediment”. With “butylated octylated diphenylamine [Naugalube 640]”, the “Bomb Life (min)” value in series [2] (150 C., Table 1 blends) is on record as “terminated before a break point was ever observed”. Moreover, in series [3], the “Cream (%)” value was < 1.0%. The pH in series [3] (initial 9.0) is listed as 7.0. Further, the “synergy of antioxidant and biocide on onset time” value in series [4] is given as “strongest”. In series [1], the Sediment entry is listed as “reduced the sediment”.

For `OCCN1CN(CCO)CN(CCO)C1` [Triadine 3, 1,3,5-tris(hydroxyethyl)-s-triazine], in series [2] (0.5% Triadine-3 in Hyprene H100, two separate runs, baseline), the “Bomb Life” value was 35 min and 37 min. Further, the “Oxidation Lifetime” value in series [5] is 492 h and 836 h. As for “mono-, di-, and tri-, nonylated diphenylamine [Naugalube 438L]”, the “Cream (%)” value in series [6] was “no significant cream”. For `Cc1cc(C(C)(C)C)c(O)c(C(C)(C)C)c1` [BHT, 2,6-di-t-butyl hydroxytoluene], the “synergy of antioxidant and biocide on onset time” value in series [4] was “weakest”. The Sediment result in series [1] is on record as “antagonistically increased the sediment in combination with biocide”.

With “octylated phenyl-α-naphthylamine [Naugalube APAN]”, the “Cream (%)” value in series [6] was “no significant cream”.

With “butylated octylated diphenylamine [butylated DPA]”, the Sediment entry in series [1] is on record as “reduced the sediment”.
